Reference: publication PMC467089, “Click estradiol dimers with novel aromatic bridging units: synthesis and anticancer evaluation” (Journal of Enzyme Inhibition and Medicinal Chemistry, 2024)
Entries after “also recorded” stand apart in the source; their conditions may differ.

Tests used:
porcine brain tubulin [1] = target: T1, porcine brain tubulin (Sus scrofa, UniProt P02550+P02554); parameters: method as in PMID 36592487; settings: dimers of the previous study; ref [10]; cited from earlier work
T1 construct: Polymerisation of porcine brain tubulin (>99% purity) was measured; purchased Cytoskeleton, Denver, CO; host or cells: porcine brain (tissue-purified)

[2] = test system: CCRF-CEM (childhood T-cell acute lymphoblastic leukaemia); experiment: MTS cytotoxicity assay, CCRF-CEM; type: cell-based; settings: Homo sapiens, 72 h, read-out: IC50 cytotoxic activity CCRF-CEM
Procedure, shortened: (§1)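 Viability is measured by MTS after cells, seeded overnight, receive fourfold-diluted compounds for 72 h at 37 °C.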

[3] = test system: CEM-DNR (daunorubicin resistant variant of CCRF-CEM); experiment: MTS cytotoxicity assay, CEM-DNR; type: cell-based, human; settings: for IC50: Homo sapiens, CEM-DNR, 72 h, read-out: IC50 cytotoxic activity CEM-DNR
Procedure, shortened: (§2)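 Overnight-seeded cells → fourfold serial compound dilutions (DMSO) → 72 h, 37 °C, 5% CO2 → MTS added. Duplicates ×3 biological reps.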

[4] = test system: K562 (chronic myelogenous leukaemia); experiment: MTS cytotoxicity assay, K562; type: cell-based; settings: Homo sapiens, K562, 72 h, read-out: IC50 cytotoxic activity K562
Procedure, shortened: as §1

[5] = test system: K562-TAX (paclitaxel-resistant variant of K562); experiment: MTS cytotoxicity assay, K562-TAX; type: cell-based, human; settings: for IC50: Homo sapiens, K562-Tax, 72 h, read-out: IC50 cytotoxic activity K562-TAX
Procedure, shortened: as §2

[6] = test system: A549 (lung adenocarcinoma); experiment: MTS cytotoxicity assay, A549; type: cell-based, human; settings: Homo sapiens, A549, 72 h, read-out: IC50 cytotoxic activity A549
Procedure, shortened: as §2

[7] = test system: HCT116 (colorectal adenocarcinoma); experiment: MTS cytotoxicity assay, HCT116; type: cell-based; settings: Homo sapiens, HCT-116, 72 h, read-out: IC50 cytotoxic activity HCT116
Procedure, shortened: as §1

[8] = test system: HCT116p53−/− (p53 gene null variant of HCT116); experiment: MTS cytotoxicity assay, HCT116p53−/−; type: cell-based; settings: Homo sapiens, HCT-116, 72 h, read-out: IC50 cytotoxic activity HCT116p53-
Procedure, shortened: as §1

U2OS (osteosarcoma) = experiment: MTS cytotoxicity assay, U2OS; type: cell-based, human; settings: Homo sapiens, U2OS, 72 h, read-out: IC50 cytotoxic activity U2OS
Procedure, shortened: as §2

[9] = MTS cytotoxicity assay, MRC-5; type: cell-based; settings: human
Procedure, shortened: as §1

[10] = MTS cytotoxicity assay, BJ; type: cell-based; settings: human
Procedure, shortened: as §2

[11] = MTS cytotoxicity assay, HUVEC; type: cell-based; settings: human
Procedure, shortened: as §1

porcine brain tubulin [12] = target: T1, porcine brain tubulin; experiment: Tubulin polymerisation assay; type: biochemical; settings: 10 μmol/L, Vmax relative to DMSO
Procedure, shortened: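 Porcine brain tubulin (>99% pure) was polymerised at 37 °C with 10 μmol/L test compound or DMSO and monitored on a plate reader. Vmax was derived from the polymerisation curves.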

CCRF-CEM lymphoblasts [13] = experiment: Cell cycle analysis by flow cytometry (propidium iodide); type: cell-based, human
Procedure, shortened: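 CCRF-CEM cells treated 24 h, then fixed in cold 70% ethanol, permeabilised with 0.25% Triton X-100 and stained with anti-phospho-histone H3 (Ser10). After 50 μg/mL RNase and propidium iodide, analysed by flow cytometry at 488 nm; sub-G1 events counted as non-viable with fragmented DNA.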

CCRF-CEM lymphoblasts [14] = experiment: Phospho-histone H3 (Ser10) mitotic marker, flow cytometry; type: cell-based, human
Procedure, shortened: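 Mitotic fraction scored by flow cytometry (488 nm) using Ser10-phosphorylated histone H3 antibody plus propidium iodide DNA stain, following RNase. CCRF-CEM lymphoblasts had 24 h compound exposure before ethanol fixation and Triton X-100 permeabilisation; events below G1 DNA content classed as fragmented-DNA, non-viable cells.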

CCRF-CEM lymphoblasts [15] = experiment: BrDU incorporation analysis (DNA synthesis); type: cell-based, human
Procedure, shortened: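 Percentage of BrDU-incorporating cells was measured by flow cytometry after anti-BrdU/FITC and propidium iodide staining. Before that, CCRF-CEM lymphoblasts treated 24 h with compound received a 30-min 10 μM BrDU pulse, then ethanol fixation and 2 M HCl denaturation.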

CCRF-CEM lymphoblasts [16] = experiment: BrU incorporation analysis (RNA synthesis); type: cell-based, human
Procedure, shortened: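 CCRF-CEM cells were treated with compounds for 24 h, then pulsed with 1 mM BrU for 30 min and fixed in 1% paraformaldehyde/0.05% NP-40. BrU was detected with a cross-reacting anti-BrdU antibody and FITC secondary, with propidium iodide/RNase counterstain; value is percentage of BrU-positive cells by flow cytometry.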

HUVEC cells = experiment: Endothelial cell tube formation angiogenesis assay; type: cell-based, human; settings: 60 nM, 24 h, Matrigel
Procedure: The experiment was performed in 96-well plates pre-coated with 50 μL of growth factor reduced basement membrane matrix Matrigel (Corning, Corning, NY). The coating was set by incubating the plates for 1 h at 37 °C. Subsequently, HUVEC cells were seeded at a density of 15 000 cells per well, and dissolved test substances were added to this layer in a total volume of 100 μL. The assay plates were then incubated for 24 h to facilitate endothelial tube formation. After this incubation, the cells were stained with Hoechst 33342 (Thermo Fisher Scientific, Waltham, MA) to a final concentration of 10 μM and calcein AM (Invitrogen, Carlsbad, CA) to a final concentration of 2 µg/mL for 30 min, followed by visualisation in DIC and fluorescent modes using a Zeiss fluorescent microscope (Oberkochen, Germany).

T1 sequence (P02550 whole entry): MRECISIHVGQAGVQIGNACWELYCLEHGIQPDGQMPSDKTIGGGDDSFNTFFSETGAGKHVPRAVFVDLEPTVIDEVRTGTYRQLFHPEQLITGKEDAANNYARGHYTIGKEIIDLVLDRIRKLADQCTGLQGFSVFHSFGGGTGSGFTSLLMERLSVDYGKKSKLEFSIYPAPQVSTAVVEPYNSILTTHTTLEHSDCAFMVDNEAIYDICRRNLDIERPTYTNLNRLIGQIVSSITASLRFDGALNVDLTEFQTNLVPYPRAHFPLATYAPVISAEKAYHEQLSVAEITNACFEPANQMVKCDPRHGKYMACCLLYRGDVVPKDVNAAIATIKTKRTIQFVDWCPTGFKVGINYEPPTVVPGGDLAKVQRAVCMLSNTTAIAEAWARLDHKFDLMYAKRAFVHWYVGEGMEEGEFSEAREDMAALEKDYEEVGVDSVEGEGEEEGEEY
T1 sequence (P02554 whole entry): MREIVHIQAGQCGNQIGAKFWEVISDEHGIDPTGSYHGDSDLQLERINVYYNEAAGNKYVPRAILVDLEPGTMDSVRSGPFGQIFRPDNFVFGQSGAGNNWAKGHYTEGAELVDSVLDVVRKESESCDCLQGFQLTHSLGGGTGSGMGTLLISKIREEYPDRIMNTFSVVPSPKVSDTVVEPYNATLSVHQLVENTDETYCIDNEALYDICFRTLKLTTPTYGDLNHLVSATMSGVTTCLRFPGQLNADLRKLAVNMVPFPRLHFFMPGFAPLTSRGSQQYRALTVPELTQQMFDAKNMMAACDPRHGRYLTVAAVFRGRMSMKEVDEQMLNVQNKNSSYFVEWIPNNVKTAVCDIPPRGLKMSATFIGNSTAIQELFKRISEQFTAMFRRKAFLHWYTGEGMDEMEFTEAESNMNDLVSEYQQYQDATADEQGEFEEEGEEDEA

| SMILES | Tubulin polymerisation inhibition (porcine brain tubulin [1]) [%] | IC50 [2] [µM] | IC50 [3] [µM] | IC50 [4] [µM] | IC50 [5] [µM] | IC50 [6] [µM] | IC50 [7] [µM] | IC50 [8] [µM] | IC50 (U2OS (osteosarcoma)) [µM] | IC50 at 72 h [9] [µM] | IC50 at 72 h [10] [µM] | IC50 at 72 h [11] [µM] | inhibitory activity against tubulin polymerisation (in words) (porcine brain tubulin [12]) | <G1 (sub-G1, fragmented DNA), % of positive cells (CCRF-CEM lymphoblasts [13]; 1×IC50, 24 h) [%] | >G2/M (polyploidy), % of positive cells (CCRF-CEM lymphoblasts [13]; 1×IC50, 24 h) [%] | G0/G1, % of positive cells (CCRF-CEM lymphoblasts [13]; 1×IC50, 24 h) [%] | G2/M, % of positive cells (CCRF-CEM lymphoblasts [13]; 1×IC50, 24 h) [%] | S, % of positive cells (CCRF-CEM lymphoblasts [13]; 1×IC50, 24 h) [%] | <G1 (sub-G1, fragmented DNA), % of positive cells (CCRF-CEM lymphoblasts [13]; 5×IC50, 24 h) [%] | >G2/M (polyploidy), % of positive cells (CCRF-CEM lymphoblasts [13]; 5×IC50, 24 h) [%] | further results |
| --- | --- | --- | --- | --- | --- | --- | --- | --- | --- | --- | --- | --- | --- | --- | --- | --- | --- | --- | --- | --- | --- |
| C[C@]12CC[C@@H]3c4ccc(O)cc4CC[C@H]3[C@@H]1CC[C@@]2(O)c1cn(CCCCCn2cc([C@]3(O)CC[C@H]4[C@@H]5CCc6cc(O)ccc6[C@H]5CC[C@@]43C)nn2)nn1 [D1] | 65.0 |  |  |  |  |  |  |  |  |  |  |  |  |  |  |  |  |  |  |  |  |
| C[C@]12CC[C@@H]3c4ccc(O)cc4CC[C@H]3[C@@H]1CC[C@@]2(O)c1cn(CCOCCn2cc([C@]3(O)CC[C@H]4[C@@H]5CCc6cc(O)ccc6[C@H]5CC[C@@]43C)nn2)nn1 [D2] | 79.1 |  |  |  |  |  |  |  |  |  |  |  |  |  |  |  |  |  |  |  |  |
| C[C@]12CC[C@@H]3c4ccc(O)cc4CC[C@H]3[C@@H]1CC[C@@]2(O)c1cn(CCNCCn2cc([C@]3(O)CC[C@H]4[C@@H]5CCc6cc(O)ccc6[C@H]5CC[C@@]43C)nn2)nn1 [D3] | 36.8 |  |  |  |  |  |  |  |  |  |  |  |  |  |  |  |  |  |  |  |  |
| COc1cc(CN(CCn2cc([C@]3(O)CC[C@H]4[C@@H]5CCc6cc(O)ccc6[C@H]5CC[C@@]43C)nn2)CCn2cc([C@]3(O)CC[C@H]4[C@@H]5CCc6cc(O)ccc6[C@H]5CC[C@@]43C)nn2)ccc1O [D9] | 49.6 |  |  |  |  |  |  |  |  |  |  |  |  |  |  |  |  |  |  |  |  |
| COc1c(Cn2cc([C@]3(O)CC[C@H]4[C@@H]5CCc6cc(O)ccc6[C@H]5CC[C@@]43C)nn2)cc(C)cc1Cn1cc([C@]2(O)CC[C@H]3[C@@H]4CCc5cc(O)ccc5[C@H]4CC[C@@]32C)nn1 [ED8, (17β,17′β)-17,17′-[(2-Methoxy-5-methylbenzene-1,3-diyl)bis(methanediyl-1H-1,2,3-triazole-1,4-diyl)]bisestra-1,3,5(10)-triene-3,17-diol] |  | 1.38 ± 0.18 | 3.44 ± 0.69 | 0.69 ± 0.15 | 13.1 ± 3.69 | > 50 | 1.77 ± 0.16 | 2.01 ± 0.12 | 6.93 ± 1.16 | > 50 | > 50 | 0.079 ± 0.048 | comparable or better inhibitory activity | 16.29 | 7.25 | 34.59 | 31.94 | 33.47 | 24.86 | 10.51 | IC50 cytotoxic activity CEM-DNR [3]: maintained its activity; IC50 cytotoxic activity K562-TAX [5]: sensitive; G0/G1, % of positive cells (CCRF-CEM lymphoblasts [13]; 5×IC50, 24 h): 4.71%; G2/M, % of positive cells (CCRF-CEM lymphoblasts [13]; 5×IC50, 24 h): 78.93%; S, % of positive cells (CCRF-CEM lymphoblasts [13]; 5×IC50, 24 h): 16.36%; pH3Ser10, % of positive cells (CCRF-CEM lymphoblasts [14]; 1×IC50, 24 h): 11.01%; pH3Ser10, % of positive cells (CCRF-CEM lymphoblasts [14]; 5×IC50, 24 h): 0.63%; BrDU, % of positive cells (CCRF-CEM lymphoblasts [15]; 1×IC50, 24 h): 45.06%; BrDU, % of positive cells (CCRF-CEM lymphoblasts [15]; 5×IC50, 24 h): 5.15%; BrU, % of positive cells (CCRF-CEM lymphoblasts [16]; 1×IC50, 24 h): 59.19%; BrU, % of positive cells (CCRF-CEM lymphoblasts [16]; 5×IC50, 24 h): 3.11% |
| Cc1cc(C)c(Cn2cc([C@]3(O)CC[C@H]4[C@@H]5CCc6cc(O)ccc6[C@H]5CC[C@@]43C)nn2)cc1Cn1cc([C@]2(O)CC[C@H]3[C@@H]4CCc5cc(O)ccc5[C@H]4CC[C@@]32C)nn1 [ED9, 17,17′-[(4,6-Dimethyl-1,3-phenylene)bis(methylene-1H-1,2,3-triazole-1,4-diyl)]di[estra-1,3,5(10)-triene-3,17β-diol]] |  | 1.69 ± 0.057 | > 50 | 1.27 ± 0.12 | > 50 | > 50 | 2.02 ± 0.3 | 1.96 ± 0.26 | 5.26 ± 1.69 | 3.2 ± 0.89 | > 50 | 0.038 ± 0.011 | comparable or better inhibitory activity | 3.92 | 13.86 | 38.18 | 23.92 | 37.90 | 11.48 | 17.77 | G0/G1, % of positive cells (CCRF-CEM lymphoblasts [13]; 5×IC50, 24 h): 4.31%; G2/M, % of positive cells (CCRF-CEM lymphoblasts [13]; 5×IC50, 24 h): 68.38%; S, % of positive cells (CCRF-CEM lymphoblasts [13]; 5×IC50, 24 h): 27.32%; pH3Ser10, % of positive cells (CCRF-CEM lymphoblasts [14]; 1×IC50, 24 h): 8.42%; pH3Ser10, % of positive cells (CCRF-CEM lymphoblasts [14]; 5×IC50, 24 h): 41.35%; BrDU, % of positive cells (CCRF-CEM lymphoblasts [15]; 1×IC50, 24 h): 46.72%; BrDU, % of positive cells (CCRF-CEM lymphoblasts [15]; 5×IC50, 24 h): 8.89%; BrU, % of positive cells (CCRF-CEM lymphoblasts [16]; 1×IC50, 24 h): 23.92%; BrU, % of positive cells (CCRF-CEM lymphoblasts [16]; 5×IC50, 24 h): 38.94% |
| C[C@]12CC[C@@H]3c4ccc(O)cc4CC[C@H]3[C@@H]1CC[C@@]2(O)c1cn(Cc2ccc(O)c(Cn3cc([C@]4(O)CC[C@H]5[C@@H]6CCc7cc(O)ccc7[C@H]6CC[C@@]54C)nn3)n2)nn1 [ED12, 17,17′-[(3-Hydroxypyridine-2,6-diyl)bis(methylene-1H-1,2,3-triazole-1,4-diyl)]di[estra-1,3,5(10)-triene-3,17β-diol]] |  | 6.14 ± 0.93 | > 50 | 4.52 ± 0.64 | > 50 | > 50 | 8.78 ± 0.88 | 10.5 ± 2.48 | 16.8 ± 3.46 | 14.2 ± 3.52 | 11.3 ± 1.41 | 0.657 ± 0.132 | comparable or better inhibitory activity; also recorded: comparable to that of the original ED | 11.00 | 17.19 | 4.79 | 66.70 | 28.50 | 16.07 | 14.18 | G0/G1, % of positive cells (CCRF-CEM lymphoblasts [13]; 5×IC50, 24 h): 22.95%; G2/M, % of positive cells (CCRF-CEM lymphoblasts [13]; 5×IC50, 24 h): 32.79%; S, % of positive cells (CCRF-CEM lymphoblasts [13]; 5×IC50, 24 h): 44.26%; pH3Ser10, % of positive cells (CCRF-CEM lymphoblasts [14]; 1×IC50, 24 h): 13.49%; pH3Ser10, % of positive cells (CCRF-CEM lymphoblasts [14]; 5×IC50, 24 h): 47.08%; BrDU, % of positive cells (CCRF-CEM lymphoblasts [15]; 1×IC50, 24 h): 12.43%; BrDU, % of positive cells (CCRF-CEM lymphoblasts [15]; 5×IC50, 24 h): 7.46%; BrU, % of positive cells (CCRF-CEM lymphoblasts [16]; 1×IC50, 24 h): 33.92%; BrU, % of positive cells (CCRF-CEM lymphoblasts [16]; 5×IC50, 24 h): 8.14% |
| Cc1ccc(C(=O)Nc2ccc(S(=O)(=O)O)c3cc(S(=O)(=O)O)cc(S(=O)(=O)O)c23)cc1NC(=O)c1cccc(NC(=O)Nc2cccc(C(=O)Nc3cc(C(=O)Nc4ccc(S(=O)(=O)O)c5cc(S(=O)(=O)O)cc(S(=O)(=O)O)c45)ccc3C)c2)c1 [suramine] |  |  |  |  |  |  |  |  |  |  |  |  |  |  |  |  |  |  |  |  | endothelial cell tube formation (in words) (HUVEC cells): prevented endothelial cell tube formation |
